Data published in the SangsterLogP compilation.

Assay: method code SF-AS, from DOI: 10.1021/jm00252a008, PMID: 4598022

SMILES	logP
CN1C(=O)S/C(=C\c2ccc([N+](=O)[O-])o2)C1=O	1.78
CSC1=NC(=O)C(=Cc2ccc([N+](=O)[O-])o2)S1 (stereo in doubt)	1.41
O=C1NC(=O)/C(=C\c2ccc([N+](=O)[O-])o2)S1	0.63
CC(C)N1C(=O)S/C(=C\c2ccc([N+](=O)[O-])o2)C1=O	2.42
C/N=C1\NC(=O)/C(=C/c2ccc([N+](=O)[O-])o2)S1	1.16
CCN1C(=O)S/C(=C/c2ccc([N+](=O)[O-])o2)C1=O	2.29
CCC/N=C1\NC(=O)/C(=C/c2ccc([N+](=O)[O-])o2)S1	1.24
CCN(CC)C1=NC(=O)/C(=C/c2ccc([N+](=O)[O-])o2)S1	1.22
C/N=C1\SC(=Cc2ccc([N+](=O)[O-])o2)C(=O)N1C	1.42
CC(=O)N(C)C1=NC(=O)/C(=C\C=C/c2ccc([N+](=O)[O-])o2)S1	1.21
CNc1nc(=O)cc(-c2ccc([N+](=O)[O-])o2)s1	0.86
C/N=C1/NC(=O)/C(=C/C=C/c2ccc([N+](=O)[O-])o2)S1	1.35
CC(=O)N=C1S/C(=C\c2ccc([N+](=O)[O-])o2)C(=O)N1C (stereo in doubt)	1.21
CC(=O)NC1=NC(=O)/C(=C/c2ccc([N+](=O)[O-])o2)S1	1.03
CN1C(=N)S/C(=C/c2ccc([N+](=O)[O-])o2)C1=O	1.44
O=c1cc(-c2ccc([N+](=O)[O-])o2)sc(=O)[nH]1	0.55
CCN1C(=O)C(=Cc2ccc([N+](=O)[O-])o2)S/C1=N\C(C)=O	1.21
CC(C)/N=C1\NC(=O)/C(=C/c2ccc([N+](=O)[O-])o2)S1	1.29
CC/N=C1\NC(=O)/C(=C/c2ccc([N+](=O)[O-])o2)S1	1.16

SMILES	logP
CCN1C(=N)SC(=Cc2ccc([N+](=O)[O-])o2)C1=O	1.44
CCCN=C1SC(=Cc2ccc([N+](=O)[O-])o2)C(=O)N1CCC	1.32
C=CCN=C1SC(=Cc2ccc([N+](=O)[O-])o2)C(=O)N1CC=C	1.46
CC(C)N=C1SC(=Cc2ccc([N+](=O)[O-])o2)C(=O)N1C(C)C	1.22
O=C1NC(=Nc2ccccc2)SC1=Cc1ccc([N+](=O)[O-])o1	1.41
C=CCN1C(=O)S/C(=C\c2ccc([N+](=O)[O-])o2)C1=O	2.22
CC(=O)N(C)C1=NC(=O)/C(=C/c2ccc([N+](=O)[O-])o2)S1	1.05
CC(=O)NC1=NC(=O)/C(=C\C=Cc2ccc([N+](=O)[O-])o2)S1 (stereo in doubt)	0.95
CN(C)C1=NC(=O)/C(=C/c2ccc([N+](=O)[O-])o2)S1	1.16
CC(=O)Nc1nc(=O)cc(-c2ccc([N+](=O)[O-])o2)s1	1.01
NC1=NC(=O)C(=Cc2ccc([N+](=O)[O-])o2)S1 (stereo in doubt)	1.09
CN(C)c1nc(=O)cc(-c2ccc([N+](=O)[O-])o2)s1	0.55
CCCN1C(=O)S/C(=C\c2ccc([N+](=O)[O-])o2)C1=O	2.4
O=C1NC(=S)SC1=CC=Cc1ccc([N+](=O)[O-])o1	0.93
O=C1NC(=S)SC1=Cc1ccc([N+](=O)[O-])o1	0.74
CN1C(=O)SC(=CC=Cc2ccc([N+](=O)[O-])o2)C1=O	1.4
CCCN1C(=O)/C(=C/c2ccc([N+](=O)[O-])o2)S/C1=N\C(C)=O	1.17
CN1C(=O)/C(=C\c2ccc([N+](=O)[O-])o2)SC1=S	1.06
